What was measured:
[1] = Stability of iodosulfuron-methyl-sodium solid forms; type: physicochemical; conditions: hydrolysis when dissolved or dispersed in water and during storage exposed to moisture
[2] = compared with the amorphous state; from U.S. Ser. No. 14/926,133; cited from earlier work

In the case of `COC(=O)c1ccc(I)cc1S(=O)(=O)NC(=O)Nc1nc(C)nc(OC)n1.[Na]` [sodium salt of methyl 4-iodo-2-[[[[(4-methoxy-6-methyl-1,3,5-triazin-2-yl)amino]carbonyl]amino]sulfonyl]benzoate], the stability [1] is given as “highly unstable” and the stability in formulations [2] is given as “improved stability”.
